{"source": "patent US20260049101A1", "about": "“TOPICAL TREATMENT OF SKIN CANCER USING OLIGOPEPTIDES” (BACOBA AG, priority 2022, published 2026)", "key": {"[1]": {"test_system": "cutaneous squamous cell carcinoma cell line SCC12", "experiment": "In vitro anti-proliferative assay (resazurin) in SCC12", "assay_type": "cell-based", "settings": "SCC12, 72 hours", "description": "Methodology. The cutaneous squamous cell carcinoma cell culture SCC12 was cultivated in keratinocyte-SFM media (KSFM, Cat #17005042, Gibco) supplemented with human recombinant epidermal growth factor 1-53 (EGF 1-53) and bovine pituitary extract (BFE).\nVehicle treated wells were set to 100% viability."}, "[2]": {"test_system": "B16-F10 mouse melanoma cells", "experiment": "In vitro cell viability assay on B16-F10", "assay_type": "cell-based", "settings": "B16-F10, 72 hours, resazurin", "method": "In vitro cell viability assay methodology.\nHalf maximal inhibitory concentration (IC50) of the compounds was determined by seeding of cell culture into 96 well-plates (Cat #353072, Corning) and treated the day after with dose-escalating concentrations of the compounds (from 0.001 μM to 10 μM in RPMI-1640 complete) for 72 hours. 1000 cells were seeded per well. […] Triplicates were seeded for each condition. […] Vehicle treated wells were set to 100% viability."}, "[3]": {"test_system": "B16F10 xenografts in C57BL/6 mice", "experiment": "In vivo efficacy test, dermal treatment of intradermal B16-F10 tumours (tumour volume)", "set-up": "species or system mouse", "settings": "for T/C [%] (ratio of mean tumour volume of treated over control) / RTV Mean / RTV Median / Tumour Volume [cm^3] Mean / Tumour Volume [cm^3] Median: 20 μl of 5% 6027 dermally daily from day 1; for RTV Mean / RTV Median / Tumour Volume [cm^3] Mean / Tumour Volume [cm^3] Median: n=8", "method": "In vivo efficacy test methodology. C57Bl/6 mice (Janvier Labs); females; 6-8 weeks old at beginning of the treatment. The tumour was induced through intradermal inoculation of 1×10^5 cells per mouse intradermally in the skin of the neck. A total of 24 mice were used (n=8 for vehicle, n=8 for 5% 6027, n=8 for leucinostatin A 0.2%). Test item was applied starting on day 1 after inoculation of the tumour cells. The test items of 20 μl of 5% 6027 and of 0.2% Leucinostatin A were applied dermally with a pipette once a day every day for up to 21 days to the intact skin area of about 1 cm^2 on the site were the B16-F10 cells had been injected. If ulceration occurred then the animal was removed from the test and sacrificed.\n(§1) The read out was tumour volume measured three times a week expressed as tumour volume (in cm^3). Additionally, tumour samples were taken for histological analysis (Tumour FFPE) (2 mice per group)."}, "[4]": {"test_system": "B16F10 xenografts in C57BL/6 mice", "experiment": "Histopathology (Ki67, TUNEL) of tumour slices from treated mice", "assay_type": "in vivo, mouse", "settings": "daily 20 μl of 6027 vs vehicle treated controls; Two-Way ANOVA", "method": "as §1\nHistopathology. After sacrifice non ulcerated tumours were sampled and paraffin blocks were prepared for immunohistochemistry stainings. […] During interphase, the Ki-67 antigen can be exclusively detected within the cell nucleus, whereas in mitosis most of the protein is relocated to the surface of the chromosomes. Ki-67 protein is present during all active phases of the cell cycle (G1, S, G2 and mitosis), but is absent in resting (quiescent) cells (G0). Cellular content of Ki-67 protein markedly increases during cell progression through S phase of the cell cycle.\nTUNEL staining was used to determine areas of the tumour in which apoptosis was observed. Terminal deoxynucleotidyl transferase dUTP nick end labeling (TUNEL) staining is a method for detecting DNA fragmentation by labeling the 3′-hydroxyl termini in DNA double-stranded breaks generated during apoptosis."}, "[5]": {"test_system": "patient derived Basal Cell Carcinoma (BCC)", "assay_type": "cell-based, human", "settings": "4 days, vs DMSO; for cell proliferation (Ki67): p<0.002", "description": "Tumour material was harvested from an infiltrative basal cell carcinoma (BCC) from a patient's nose."}, "[6]": {"test_system": "patient derived Basal Cell Carcinoma (BCC)", "assay_type": "cell-based, human", "settings": "500 nM, 4 days, vs DMSO"}, "[7]": {"test_system": "patient derived high grade cutaneous squamous cell carcinoma (cSCC)", "experiment": "Ex vivo patient-derived high grade cSCC (Example 11), Ki67", "assay_type": "cell-based, human", "settings": "500 nM, 4 days, vs DMSO; p<0.003", "description": "Tumour material was harvested from high grade cutaneous squamous cell carcinoma (cSCC) from a patient's head."}, "[8]": {"settings": "Franz cells, 48 hours, donor 0.1% 6027 in DMSO, acceptor PBS + 2% Volpo; % of total 6027", "quoted_text": "Pig ears from freshly slaughtered pigs, not older than 5 months and of both sexes, were obtained from the slaughterhouse Bell Schweiz AG (Basel, Switzerland). The ears were washed with tap water and the hairs were removed with an electric clipper. The skin was separated from the underlying cartilage from the backside of the ear by using a scalpel. After washing the skin again, it was stored in aluminium foil at −20° C. for no longer than one month.\nAfter thawing the frozen skin, it was cut into adequate circles and the skin thickness was measured with a calliper. The skin was mounted into the FDC, tightly sealed with Teflon band and fixed in special designed holder. Then the acceptor compartment was equipped with a magnetic stirrer, filled with placebo formulation and equilibrated for one hour. To check the barrier integrity and to be sure that there are no invisible damages from skin preparation TEWL (transepidermal water loss) was measured. The FDCs were then placed in the water bath +32° C.±1 over a magnetic stirrer (500 rpm). Due to differences of each FDC, the skin application area for drug permeation was measured and calculated for each cell in advance. Consequently, the amount of 6027 for the donor compartment had to be adjusted for the infinite-dose experiment to 284.1 μL/cm^2.\nAt predefined time points 50 μL samples were taken from the acceptor compartment. The missing volume was replaced with the corresponding placebo formulation.\nAt the end of the permeation experiment and before reassembling the FDCs, the donor compartments were washed out with 10 mL ACN:H2O (55:45).\nTo extract 6027 from the skin, the frozen skin was cut into small pieces and grinded by a cryogenic grinder Freezer/Mill® from Spex SamplePrep (Metuchen, USA). The setting was 10 min precooling and a rate of 10 CPS for 4 cycles with 2 minutes. The resulting powder was resuspended in 2 mL ACN:H2O (55:45). […]\nThe concentrations of 6027 were determined by using HPLC-MS from Agilent Technologies. […]"}}, "note": "pIC50: −log10 of the molar value. Entries after “also recorded” stand apart in the source; their conditions may differ. Read-outs that look alike come from different tables or passages of the source. Square brackets hold non-standard residues; d marks the D form. Peptide text beside a SMILES is read from it. * marks the point of attachment. NH(1-CH2NMe2-cBu) = CN(C)CC1(N*)CCC1; Benzoyl(4-F) = O=C(c1ccc(F)cc1)*; hCha = N[C@@H](CCC1CCCCC1)C(=O)O; Aib = CC(C)(N)C(=O)O; βAla = NCCC(=O)O"}
{"smiles": "CC(C)C[C@H](NC(=O)[C@H](CCC1CCCCC1)NC(=O)[C@@H]1CCCN1C(=O)c1ccc(F)cc1)C(=O)NC(C)(C)C(=O)N[C@@H](CC(C)C)C(=O)N[C@@H](CC(C)C)C(=O)NC(C)(C)C(=O)NC(C)(C)C(=O)NCCC(=O)NC1(CN(C)C)CCC1", "note": "[Compound 6027, (2S)-2-[(2S)-4-cyclohexyl-2-{[(2S)-1-(4-fluorobenzoyl)pyrrolidin-2-yl]formamido}butanamido]-N-(1-{[(1S)-1-{[(1S)-1-({1-[(1-{[2-({1-[(dimethylamino)methyl]cyclobutyl}carbamoyl)ethyl]carbamoyl}-1-methylethyl)carbamoyl]-1-methylethyl}carbamoyl)-3-methylbutyl]carbamoyl}-3-methylbutyl]carbamoyl}-1-methylethyl)-4-methylpentanamide] ({Benzoyl(4-F)}-P[hCha]L[Aib]LL[Aib][Aib][βAla]-{NH(1-CH2NMe2-cBu)})", "values": [{"measurement": "pIC50", "setting": "[1]", "value": 6.93}, {"measurement": "pIC50", "setting": "[2]", "value": 6.68}, {"measurement": "T/C [%] (ratio of mean tumour volume of treated over control)", "setting": "[3]; day 1", "value": 100, "unit": "%"}, {"measurement": "RTV Mean", "setting": "[3]; day 1", "value": 1.0}, {"measurement": "RTV Median", "setting": "[3]; day 1", "value": 1.0}, {"measurement": "Tumour Volume [cm^3] Mean", "setting": "[3]; day 1", "value": 0.001, "unit": "cm^3"}, {"measurement": "Tumour Volume [cm^3] Median", "setting": "[3]; day 1", "value": 0.001, "unit": "cm^3"}, {"measurement": "T/C [%] (ratio of mean tumour volume of treated over control)", "setting": "[3]; day 2", "value": 100, "unit": "%"}, {"measurement": "RTV Mean", "setting": "[3]; day 2", "value": 1.0}, {"measurement": "RTV Median", "setting": "[3]; day 2", "value": 1.0}, {"measurement": "Tumour Volume [cm^3] Mean", "setting": "[3]; day 2", "value": 0.001, "unit": "cm^3"}, {"measurement": "Tumour Volume [cm^3] Median", "setting": "[3]; day 2", "value": 0.001, "unit": "cm^3"}, {"measurement": "T/C [%] (ratio of mean tumour volume of treated over control)", "setting": "[3]; day 4", "value": 100, "unit": "%"}, {"measurement": "RTV Mean", "setting": "[3]; day 4", "value": 1.0}, {"measurement": "RTV Median", "setting": "[3]; day 4", "value": 1.0}, {"measurement": "Tumour Volume [cm^3] Mean", "setting": "[3]; day 4", "value": 0.001, "unit": "cm^3"}, {"measurement": "Tumour Volume [cm^3] Median", "setting": "[3]; day 4", "value": 0.001, "unit": "cm^3"}, {"measurement": "T/C [%] (ratio of mean tumour volume of treated over control)", "setting": "[3]; day 7", "value": 71, "unit": "%"}, {"measurement": "RTV Mean", "setting": "[3]; day 7", "value": 8.8}, {"measurement": "RTV Median", "setting": "[3]; day 7", "value": 9.0}, {"measurement": "Tumour Volume [cm^3] Mean", "setting": "[3]; day 7", "value": 0.009, "unit": "cm^3"}, {"measurement": "Tumour Volume [cm^3] Median", "setting": "[3]; day 7", "value": 0.009, "unit": "cm^3"}, {"measurement": "T/C [%] (ratio of mean tumour volume of treated over control)", "setting": "[3]; day 9", "value": 64, "unit": "%"}, {"measurement": "RTV Mean", "setting": "[3]; day 9", "value": 28.4}, {"measurement": "RTV Median", "setting": "[3]; day 9", "value": 25.5}, {"measurement": "Tumour Volume [cm^3] Mean", "setting": "[3]; day 9", "value": 0.028, "unit": "cm^3"}, {"measurement": "Tumour Volume [cm^3] Median", "setting": "[3]; day 9", "value": 0.026, "unit": "cm^3"}, {"measurement": "T/C [%] (ratio of mean tumour volume of treated over control)", "setting": "[3]; day 10", "value": 35, "unit": "%"}, {"measurement": "RTV Mean", "setting": "[3]; day 10", "value": 29.9}, {"measurement": "RTV Median", "setting": "[3]; day 10", "value": 25.5}, {"measurement": "Tumour Volume [cm^3] Mean", "setting": "[3]; day 10", "value": 0.030, "unit": "cm^3"}, {"measurement": "Tumour Volume [cm^3] Median", "setting": "[3]; day 10", "value": 0.026, "unit": "cm^3"}, {"measurement": "T/C [%] (ratio of mean tumour volume of treated over control)", "setting": "[3]; day 11", "value": 33, "unit": "%"}, {"measurement": "RTV Mean", "setting": "[3]; day 11", "value": 44.6}, {"measurement": "RTV Median", "setting": "[3]; day 11", "value": 31.0}, {"measurement": "Tumour Volume [cm^3] Mean", "setting": "[3]; day 11", "value": 0.045, "unit": "cm^3"}, {"measurement": "Tumour Volume [cm^3] Median", "setting": "[3]; day 11", "value": 0.031, "unit": "cm^3"}, {"measurement": "reduction of tumour growth", "setting": "[3]; topical treatment with 5% 6027 vs vehicle", "value": "significant reduction of tumour growth"}, {"measurement": "apoptotic cells (TUNEL) in tumour slices", "setting": "[4]", "value": "significant increase of apoptotic cells; also recorded: Strong proapoptotic potential"}, {"measurement": "proliferative cells (Ki67) in tumour slices", "setting": "[4]", "value": "significant decrease in proliferative cells"}, {"measurement": "apoptotic cells (TUNEL staining)", "setting": "[5]; 500 nM", "value": "Significant increase"}, {"measurement": "cell proliferation (Ki67)", "setting": "[5]; 500 nM", "value": "significantly reduced"}, {"measurement": "cell proliferation (Ki67)", "setting": "[5]; 1 μM", "value": "significantly reduced"}, {"measurement": "apoptotic cells (TUNEL staining)", "setting": "[5]", "value": "Significant increase"}, {"measurement": "apoptotic cells (TUNEL positive cells)", "setting": "[6]", "value": "Significant increase"}, {"measurement": "cell proliferation (Ki67)", "setting": "[6]", "value": "significantly reduced"}, {"measurement": "cell proliferation (Ki67)", "setting": "[7]", "value": "significantly reduced"}, {"measurement": "Acceptor (%)", "setting": "[8]", "value": 0.2, "unit": "%"}, {"measurement": "Donor (%)", "setting": "[8]", "value": 79, "unit": "%"}, {"measurement": "Skin extraction (%) (skin penetration)", "setting": "[8]", "value": 16, "unit": "%"}]}
